# Results as given in publication PMC6973020, “Quinoline‐Conjugated Ruthenacarboranes: Toward Hybrid Drugs with a Dual Mode of Action” (Chemmedchem, 2019).
# What was measured:
# LN229 cells = assay: CFSE staining, flow cytometry, LN229; type: cell-based, human; conditions: LN229, 40 μM, 72 h
# Method: (§1) Flow cytometry. For gaining better insights into the mechanisms of action of the ruthenium complexes, MCF‐7 and LN229 cells incubated with an IC50 dose of 3 or 4, were analyzed via flow cytometry. Several staining protocols were carried out in parallel, in independent experiments: i) AnnV/PI for the detection of apoptotic cell death, ii) AO for the detection of acidic vacuoles, iii) ApoStat for checking caspase activation, iv) CFSE for detecting interference with cellular proliferation, and v) DAPI for the detection of morphological signs of apoptosis. Untreated cells or cells treated only with BSA (control) were also measured, as reference for BSA‐free and BSA‐containing drug formulations, respectively. […] Channels FL1 (green emission), FL2 (orange emission) and/or FL3 (dark red emission) were used for fluorescence detection, according to the specific staining agent. Sideward Scatter (SSC) for MCF‐7 cells treated with 4 or BSA−4 was also analyzed, with respect to the control, for detection of shifts of cell granularity. […]
# (§2) Staining Protocols for Flow Cytometric Analysis. […] Finally, cells were washed in PBS, resuspended in PBS (or AnnV‐binding buffer for AnnV/PI), and analysed. […] Cells were then washed, trypsinised, dissolved in PBS and analysed by CyFlow® Space Partec using the PartecFloMax® software (Partec GmbH, Münster, Germany). […]
# [1] = test system: murine microglial cell line BV‐2; assay: Crystal violet (CV) cell viability assay, BV‐2; type: cell-based, mouse; conditions: 72 h
# Source text: (§3) Thus, care must be taken when comparing their biological activities with those of our previous studies, even with the same cell line, because the covalent vs. non‐covalent combination of drugs might imply different mechanisms of action in the cell.44 Here, we studied the in vitro activity of ruthenacarborane 3, i. e. free acid, and its 8‐hydroxyquinolyl (4) and 4‐{(7‐chloroquinolin‐4‐yl)oxy}butanol‐1‐yl (5) esters, against a panel of cancer cell lines (B16 mouse melanoma, A375 human skin melanoma, MCF‐7 human breast adenocarcinoma, LN229 human glioblastoma, U251 human glioma). Human fibroblast cell line MRC‐5, murine microglial cell line BV‐2 as well as peritoneal exudate cells (Mph), were chosen as models for non‐malignant cells. […] On the other side, we wanted to assess the reproducibility of the viability data, under either controlled (with BSA) or uncontrolled (without BSA) conditions, in two sets of independent assays. […] Cells were exposed to 3–5 for 72 h, after which cell viability was determined via 3‐(4,5‐dimethylthiazol‐2‐yl)‐2,5‐diphenyltetrazolium bromide (MTT) and crystal violet (CV) assays, in parallel (Table 2). Cisplatin was also tested as reference.
# (§4) Preparation of drug solutions. […] Stock solution of cisplatin was prepared in DMF (10 mM) immediately before use. A stock solution of BSA in PBS was prepared at 1.28 mM concentration, and stored at 4 °C in the dark. […] Alternatively, 3 or 4 (DMSO stock solution) were added to the BSA solution in PBS, always with a 10 : 1 molar ratio of BSA to ruthenacarborane. […]
# (§5) Colorimetric assays for cellular viability. […] The absorbance was measured with an automated microplate reader at λmax 540 nm, with the reference λmax 670 nm. Untreated cells or cells treated only with BSA (control) were also measured, as reference for BSA‐free and BSA‐containing drug formulations, respectively. […] Cell viability is expressed as percentage (%) relative to control (untreated cultures).58 Experiments were run in three independent replicates. […]
# [2] = test system: MCF‐7 human breast adenocarcinoma; assay: MTT cell viability assay, MCF‐7; type: cell-based; conditions: 72 h
# Source text: as §3
# (§6) Preparation of drug solutions. […] Stock solution of cisplatin was prepared in DMF (10 mM) immediately before use. A stock solution of BSA in PBS was prepared at 1.28 mM concentration, and stored at 4 °C in the dark. […] Alternatively, 3 or 4 (DMSO stock solution) were added to the BSA solution in PBS, always with a 10 : 1 molar ratio of BSA to ruthenacarborane. The BSA−ruthenacarborane solutions were incubated 0.5–1 h at room temperature, then diluted with cell culture medium to the desired final concentrations. Final concentrations of 3 and 4 were the same as for the BSA‐free formulation. Final DMSO was 0.02–0.5 vol %.
# (§7) Colorimetric assays for cellular viability. […] For counting the number of attached (viable) cells, cells were fixed with 4 % (w/v) paraformaldehyde for 10 min at room temperature, and subsequently stained for 15 min with […] crystal violet (CV) solution. Cells were then washed with tap water, dried in air, and the CV dye was dissolved in 33 % (w/v) acetic acid solution. For the detection of mitochondrial respiration, cells were cultivated in MTT staining solution (0.5 mg mL^−1) for approximately 1 h. The dye was then discarded, and the formed formazan (purple) was dissolved in DMSO. The absorbance was measured with an automated microplate reader at λmax 540 nm, with the reference λmax 670 nm. Untreated cells or cells treated only with BSA (control) were also measured, as reference for BSA‐free and BSA‐containing drug formulations, respectively. […] Cell viability is expressed as percentage (%) relative to control (untreated cultures).58 Experiments were run in three independent replicates. […]
# MCF‐7 cells = assay: ApoStat staining (caspase activation), MCF‐7; type: cell-based, human; conditions: MCF‐7, 20 μM, 72 h
# Method: as §1, §2
# B16 mouse melanoma = assay: Crystal violet (CV) cell viability assay, B16; type: cell-based; conditions: 72 h
# Source text: as §3, §6, §7
# [3] = test system: U251 and LN229 cell lines; assay: Cell viability assays (MTT, CV), summary for glioma and glioblastoma lines; type: cell-based, human; conditions: 72 h
# Source text: as §3, §4, §5
substance,measurement,setting,value
"closo ‐[3‐(η^6‐p‐Cymene)‐1‐(quinolin‐8‐yl‐acetate)‐3,1,2‐RuC2B9H10] [Compound 4]",cellular proliferation (CFSE staining),LN229 cells,strong inhibition of cellular proliferation
same,IC50,[1],9.2 ± 0.1 µM
same,IC50,[2],15.9 ± 0.2 µM
same,caspase activation (ApoStat),MCF‐7 cells,caspase‐independent apoptosis
same,IC50,B16 mouse melanoma,24.5 ± 2.1 µM
same,IC50,"[3]; range over both cell lines, depending on assay and formulation type, read-out: IC50 concentrations against U251 and LN229",33 to 45 µM
"closo‐ [Compound 3, closo‐ [3‐(η^6‐p‐Cymene)‐1‐(CH2COOH)‐3,1,2‐RuC2B9H10]]",IC50,[1],68.2 ± 1.3 µM
same,IC50,[2],7.7 ± 0.8 µM
same,caspase activation (ApoStat),MCF‐7 cells,induce caspase activation
same,IC50,B16 mouse melanoma,21.1 ± 2 µM
same,activity against LN229 and U251 (in words),[3]; concentration range tested up to 100 μM,inactive
